Measured values from patent publication US11420962B2, “Indene derivatives useful in treating pain and inflammation” (TARO PHARMACEUTICALS INC., priority 2018, dated 2022).

Columns and labels:
Rat DRG = experiment: Rat dorsal root ganglion excitability response (EFS, Ca2+ transients); assay type: cell-based; conditions: Rattus norvegicus; Table 3; electrical field stimulation, Ca5 indicator; read-out: Scoring (EC50, Rat DRG excitability)
How it was run: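 Adult rat DRG cells cultured for 2 days were loaded with the Ca5 dye 1 h before electrical field stimulation under four protocols. Compounds were tested at six concentrations (typically top 30 μM, 1:3 steps, duplicate), added either 24 h before or directly before EFS. The read-out was the per-well peak/baseline fluorescence ratio change, with imaging used to check for toxicity.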

[1] = system: female Sprague-Dawley rats; experiment: Cyclophosphamide-induced cystitis in rats (visceral pain); assay type: in vivo; conditions: 0.3 to 1.0 mg/kg dose, oral gavage four days; 4 h after cyclophosphamide
Experimental: Representative compounds of the invention (i.e., test compounds) were administered to female Sprague-Dawley rats, for four days by oral gavage in 0.9% saline. Two hours after the fourth dose, the rats were challenged by intraperitoneal administration of cyclophosphamide (150 mg/kg). Referred mechanical sensitivity was measured four hours later by applying a series of eight von Frey filaments to the lower abdomen, three times each for 1-2 seconds with a 5 second interval between applications. Responses were scored (zero-no response; one-response, two-response and change of position, and three-response, change of position and licking the site or vocalization), totaled and the percent of maximal possible nociceptive score calculated. Ibuprofen was used as a reference standard.

[2] = system: Rats (male, Sprague-Dawley); experiment: Rat carrageenan-induced hyperalgesia and paw edema; assay type: in vivo; conditions: 30 mg/kg, administered at the time of, or 1 h after challenge
Experimental: Representative compounds of the invention (i.e., test compounds) were administered PO, QD for 3 days prior to carrageenan injection, once at 1 h prior to carrageen, or at 5 min or 1 h post-challenge to rats (male, Sprague-Dawley). Rats received either an intraplantar injection of saline (sham) or carrageen (0.1 mL of a 2% solution [w/v]) in the right hind paw. Mechanical hyperalgesia (using an analgesymeter) and paw volume (using a digital plethysmometer) were measured at baseline (0 hr), 2, 4 and 6 h post carrageenan injection for all the animals. Celecoxib, given 1 h prior to carrageen challenge, was used as a reference standard.

Mice (male, C57Bl/6) = experiment: Pulmonary LPS challenge assay in mice; assay type: in vivo; conditions: 30 mg/kg, oral gavage once daily for three days; BALF 24 h post LPS
Experimental: Mice (male, C57Bl/6) were acclimatized for a period of about 7 days before initiation of the experiment and randomized on the day prior to treatment. Mice received vehicle or representative test compounds of the invention (i.e., test compounds) once daily for three days by oral gavage on Day −2, Day −1 and on Day 0 (the last dose being 1 h prior to LPS administration). One group of mice received the reference standard, dexamethasone, once, IP on Day 0 at 1 h prior to LPS administration. Pulmonary inflammation was induced in all animals except the sham control animals by intratracheal instillation of 20 μg LPS per animal in 50 μl saline. Sham control animals received 50 μl saline alone.
Twenty-four hours post LPS administration, animals were euthanized and the trachea was cannulated. Cold Hanks Balanced Salt Solution (HBSS) (SIGMA; Catalogue number: H1387), pH 7.2, was infused into the lungs and bronchoalveolar lavage fluid (BALF) was collected.
Total leukocyte counts were performed from the collected BALF using a mini flow-cytometer and differential counts were performed in cytospin smears stained with Leishman's staining manually. ELISA kits were used for quantification of cytokines in the BALF (TNFα, IL-1β, IL-6 and KC). Reagents, samples and standards were prepared as per kit manual. Total protein analysis in BALF samples were performed using the Biorad protein assay reagent. […]

[3] = system: Rats (male, Sprague-Dawley); experiment: Spinal nerve ligation (neuropathic pain); assay type: in vivo
Source text: Rats (male, Sprague-Dawley) were anaesthetized and placed in a prone position and the left paraspinal muscles were separated from the spinous processes at the L6-S2 levels. The L6 transverse process was carefully removed to visually identify the L4-L6 spinal nerves. The left L5 spinal nerves were isolated and tightly ligated with 6-0 silk thread. The skin was sutured to close the open tissue and animals were allowed to recover for 1 week before pain assessment. Basal readings for mechanical allodynia and thermal hyperalgesia were performed using a dynamic plantar aesthesiometer and plantar test surface, respectively, before surgery. On Day 7 following surgery, mechanical allodynia and thermal hyperalgesia were assessed and animals were randomized into treatment groups based on these baseline readings. […] Thermal hyperalgesia and mechanical allodynia were tested at 0, 60 and 120 minutes post administration of compounds on Days 7 and 14.

male Sprague-Dawley rats = experiment: Rat chronic prostatitis/chronic pelvic pain (carrageenan); assay type: in vivo; conditions: Day 3, 30 mg/kg dose, oral gavage QD
Experimental: Representative compounds of the invention (i.e., test compounds) were administered for 11 days by oral gavage in 0.9% saline (3, 10 or 30 mg/kg QD; 5 mL/kg dose volume) to male Sprague-Dawley rats. Carrageenan-mediated chronic prostatitis/chronic pelvic pain (CP/CPPS) established in rats (10 per group) by administration of an intraprostatic injection of carrageenan (˜12.5 μL/lobe of a 30 mg/mL solution) into both ventral prostate lobes, on Day 0. Referred mechanical sensitivity was measured on Days 0, 1, 3 and 7, 2 hours after test compound, or vehicle (saline) administration, by applying 6 von Frey filaments with increasing forces of 0.16-2 g to the scrotal skin area, 3 times each for 1-2 seconds, with a 5-second interval between applications. Responses were scored (zero-no response; one-reaction of the animal, two-jump, and three-licking the site) and expressed as the nociceptive threshold for each day of assessment. Ibuprofen was used as a reference standard.
According to the above assay, Compound Ia-1 restored nociceptive threshold to 65% of baseline on Day 3 at the 30 mg/kg dose as compared to the reference standard, ibuprofen (300 mg/kg), which restored the threshold to 120% of the baseline.

C=C1CC[C@H]2[C@H](CN)[C@@H]([C@@]3(C)Cc4cn[nH]c4C[C@@H]3CO)CC[C@]12C [Ia-1, ((5R,6S)-5-((3aS,4R,5S,7aS)-4-(aminomethyl)-7a-methyl-1-methyleneoctahydro-1H-inden-5-yl)-5-methyl-4,5,6,7-tetrahydro-1H-indazol-6-yl)methanol]
EC50 (Rat DRG): 6 to 15 µM
nociceptive threshold, % of baseline (pre-challenge) levels [1]: 70-91%
average increase in the paw withdrawal threshold as compared to the vehicle [2]: 41%
% protection from neutrophilia (Mice (male, C57Bl/6)): 44%
overall increase in paw withdrawal threshold as compared to the vehicle ([3]; 3 mg/kg): 48%
overall increase in paw withdrawal threshold as compared to the vehicle ([3]; 10 mg/kg): 62%
overall increase in paw withdrawal threshold as compared to the vehicle ([3]; 30 mg/kg): 82%
nociceptive threshold restored, % of baseline (male Sprague-Dawley rats): 65%
